Columns and labels:
Type in all cases: functional
[1] = test system: Staphylococcus epidermidis; assay: Antibacterial activity against linezolid-resistant Staphylococcus epidermidis 1117174
Escherichia coli [2] = assay: Antibacterial activity against Escherichia coli MG1655; settings: K-12 substr. MG1655
Staphylococcus aureus [3] = assay: Antibacterial activity against methicillin-resistant Staphylococcus aureus USA300 BAA-1556
Staphylococcus aureus [4] = assay: Antibacterial activity against linezolid-resistant Staphylococcus aureus O-128
Staphylococcus aureus [5] = assay: Antibacterial activity against Staphylococcus aureus Mu50 ATCC 700699
Staphylococcus aureus [6] = assay: Antibacterial activity against methicillin-resistant Staphylococcus aureus DB-00026
Staphylococcus aureus [7] = assay: Antibacterial activity against methicillin-resistant Staphylococcus aureus 562
Staphylococcus aureus [8] = assay: Antibacterial activity against Staphylococcus aureus ATCC 29213
Escherichia coli [9] = assay: Antibacterial activity against TolC-deficient Escherichia coli
Staphylococcus aureus [10] = assay: Antibacterial activity against […] Staphylococcus aureus ATCC 13709 SMITH
[11] = test system: Staphylococcus epidermidis; assay: Antibacterial activity against methicillin-resistant Staphylococcus epidermidis ATCC 35984
[12] = test system: Staphylococcus epidermidis; assay: Antibacterial activity against linezolid-resistant Staphylococcus epidermidis 1089191
[13] = test system: Staphylococcus epidermidis; assay: Antibacterial activity against Staphylococcus epidermidis ATCC 12228
Staphylococcus aureus [14] = assay: Antibacterial activity against methicillin-resistant Staphylococcus aureus 1201984
Staphylococcus aureus [15] = assay: Antibacterial activity against Staphylococcus aureus FDA 209P
Staphylococcus aureus [16] = assay: Antibacterial activity against PVL positive Staphylococcus aureus

Measured: MIC

CC(=O)NC[C@H]1CN(c2ccc3c(c2)CC2(C(=O)NC(=O)NC2=O)C2COCCN32)C(=O)O1 (stereo partly drawn)
32 µg/mL: [1]
> 32 µg/mL: all other assays above

CC(=O)NC[C@H]1CN(c2ccc3c(c2)CC2(C(=O)NNC2=O)C2COCCN32)C(=O)O1 (stereo partly drawn)
32 µg/mL: [1]
> 32 µg/mL: all other assays above

CS(=O)(=O)NC[C@H]1CN(c2ccc(-c3ccc4c(c3)CC3(C(=O)NC(=O)NC3=O)C3COCCN43)c(F)c2)C(=O)O1 (stereo partly drawn)
16 µg/mL: Staphylococcus aureus [5]
16 to 32 µg/mL: [11] | [13]
> 32 µg/mL: [1] | Escherichia coli [2] | Staphylococcus aureus [4] | Staphylococcus aureus [10] | [12]
32 µg/mL: all other assays above

O=C1O[C@@H](CO)CN1c1ccc2c(c1)CC1(C(=O)NNC1=O)C1COCCN21 (stereo partly drawn)
32 µg/mL: [1]
> 32 µg/mL: all other assays above

COC(=O)NC[C@H]1CN(c2ccc(-c3ccc4c(c3)CC3(C(=O)NC(=O)NC3=O)C3COCCN43)c(F)c2)C(=O)O1 (stereo partly drawn)
16 µg/mL: Staphylococcus aureus [14]
2 µg/mL: [11]
32 µg/mL: [1] | Staphylococcus aureus [4]
8 µg/mL: Staphylococcus aureus [3] | Staphylococcus aureus [6] | Staphylococcus aureus [15] | Staphylococcus aureus [16]
> 32 µg/mL: Escherichia coli [2] | Staphylococcus aureus [10] | [12]
4 µg/mL: all other assays above

O=C1O[C@@H](CO)CN1c1ccc(-c2ccc3c(c2)CC2(C(=O)NNC2=O)C2CCCN32)c(F)c1 (stereo partly drawn)
8 to 16 µg/mL: Staphylococcus aureus [6]
4 to 32 µg/mL: Staphylococcus aureus [8]
16 µg/mL: Staphylococcus aureus [5]
32 µg/mL: Staphylococcus aureus [3] | Staphylococcus aureus [15]
2 to 32 µg/mL: Staphylococcus aureus [7] | [13]
≥ 32 µg/mL: [1] | Staphylococcus aureus [10]
not listed: [11]
> 32 µg/mL: all other assays above

O=C1NC(=O)C2(Cc3cc(N4C[C@H](CO)OC4=O)ccc3N3CCOCC32)C(=O)N1 (stereo partly drawn)
32 µg/mL: [1]
> 32 µg/mL: all other assays above

CS(=O)(=O)NC[C@H]1CN(c2ccc(-c3ccc4c(c3)CC3(C(=O)NC(=O)NC3=O)C3CCCN43)c(F)c2)C(=O)O1 (stereo partly drawn)
4 µg/mL: [11]
32 µg/mL: [1] | Staphylococcus aureus [4]
16 µg/mL: Staphylococcus aureus [3] | Staphylococcus aureus [6] | Staphylococcus aureus [8] | Escherichia coli [9] | Staphylococcus aureus [15]
> 32 µg/mL: Escherichia coli [2] | Staphylococcus aureus [10] | [12]
8 µg/mL: all other assays above

COC(=O)C1(C(=O)OC)Cc2cc(-c3ccc(N4C[C@H](CO)OC4=O)cc3F)ccc2N2CCOCC21 (stereo partly drawn)
> 32 µg/mL: [1] | Escherichia coli [2] | Staphylococcus aureus [4] | Staphylococcus aureus [10] | [12]
8 µg/mL: Staphylococcus aureus [7] | [11] | [13] | Staphylococcus aureus [14] | Staphylococcus aureus [16]
16 µg/mL: all other assays above

Reference: ChEMBL document CHEMBL4219129, “Design, synthesis and biological evaluation of spiropyrimidinetriones oxazolidinone derivatives as antibacterial agents” (2018)
